Structures can show the parent of a compound that is named as a salt.
Molecular target: T1, human A2a receptor (Homo sapiens, UniProt P29274)
T1 construct: purchased Perkin-Elmer RBHA2AM400UA; host or cells: HEK293 cell membranes
Experiment: A2a receptor competition binding assay using Scintillation Proximity technology
Settings: membranes from HEK293 cells expressing human A2a receptor; 0.5 nM tritiated radioligand; SPA beads; 1 h room temperature
Procedure, shortened: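 Membranes of HEK293 cells expressing human A2a, pretreated with adenosine deaminase, incubated 1 h at room temperature with 0.5 nM tritiated pyrazolotriazolopyrimidine antagonist (final) and compound (3000 to 0.15 nM) on WGA SPA beads in Ca/Mg-free PBS with 10 mM MgCl2. Ki from EC50 via Cheng-Prusoff.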

T1 sequence (P29274 whole entry): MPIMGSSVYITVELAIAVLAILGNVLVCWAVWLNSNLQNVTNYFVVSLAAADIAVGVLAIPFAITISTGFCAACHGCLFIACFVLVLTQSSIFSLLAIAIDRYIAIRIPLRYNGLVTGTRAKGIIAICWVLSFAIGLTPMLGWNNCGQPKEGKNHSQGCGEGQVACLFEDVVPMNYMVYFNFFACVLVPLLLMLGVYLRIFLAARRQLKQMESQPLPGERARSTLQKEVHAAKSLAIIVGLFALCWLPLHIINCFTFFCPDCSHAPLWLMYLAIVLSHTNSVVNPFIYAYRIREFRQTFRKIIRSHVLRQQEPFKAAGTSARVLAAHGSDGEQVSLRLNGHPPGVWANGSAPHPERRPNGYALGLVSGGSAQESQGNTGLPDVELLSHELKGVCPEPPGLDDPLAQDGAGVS

Work on `COc1cccc2c1nc(N)n1nc(C[C@@H](C)N3CCc4nc(C)oc4C3)nc21` [Ex-211, (R)-7-methoxy-2-(2-(2-methyl-6,7-dihydrooxazolo[5,4-c]pyridin-5(4H)-yl)propyl)-[1,2,4]triazolo[1,5-c]quinazolin-5-amine] yielded an EC50 of 3 nM.

`COc1cccc2c1nc(N)n1nc(C[C@H](C)N3CCc4nc(C)oc4C3)nc21` [Ex-212, (S)-7-methoxy-2-(2-(2-methyl-6,7-dihydrooxazolo[5,4-c]pyridin-5(4H)-yl)propyl)-[1,2,4]triazolo[1,5-c]quinazolin-5-amine] was tested, and the EC50 was 6.1 nM.

`COc1cccc2c1nc(N)n1nc(C[C@@H](C)N3CCc4oc(C)nc4C3)nc21` [Ex-214, (R)-7-methoxy-2-(2-(2-methyl-6,7-dihydrooxazolo[4,5-c]pyridin-5(4H)-yl)propyl)-[1,2,4]triazolo[1,5-c]quinazolin-5-amine] was tested, and the EC50 was 29 nM.

In the case of `COc1cccc2c1nc(N)n1nc(C[C@H](C)N3CCc4oc(C)nc4C3)nc21` [Ex-215, (S)-7-methoxy-2-(2-(2-methyl-6,7-dihydrooxazolo[4,5-c]pyridin-5(4H)-yl)propyl)-[1,2,4]triazolo[1,5-c]quinazolin-5-amine], the EC50 is reported as 5.7 nM.

With `COc1cccc2c1nc(N)n1nc(C[C@@H](C)N3CCc4nc(C)sc4C3)nc21` [Ex-216, (R)-7-methoxy-2-(2-(2-methyl-6,7-dihydrothiazolo[5,4-c]pyridin-5(4H)-yl)propyl)-(1,2,4]triazolo[1,5-c]quinazolin-5-amine] the EC50 was 3 nM.

Work on `COc1cccc2c1nc(N)n1nc(C[C@@H](C)N3CCn4nc(C)cc4C3)nc21` [Ex-221, (R)-7-methoxy-2-(2-(2-methyl-6,7-dihydropyrazolo[1,5-a]pyrazin-5(4H)-yl)propyl)-[1,2,4]triazolo[1,5-c]quinazolin-5-amine] yielded an EC50 of 3.9 nM.

For `COc1cccc2c1nc(N)n1nc(CCCN3Cc4cccnc4C3)nc21` [Ex-227, 2-(3-(5H-pyrrolo[3,4-b]pyridin-6(7H)-yl)propyl)-7-methoxy-[1,2,4]triazolo[1,5-c]quinazolin-5-amine], the EC50 was 7.7 nM.

In the case of `COc1cccc2c1nc(N)n1nc(CCCN3Cc4cccc(F)c4C3)nc21` [Ex-228, 2-(3-(4-fluoroisoindolin-2-yl)propyl)-7-methoxy-[1,2,4]triazolo[1,5-c]quinazolin-5-amine], the EC50 is reported as 7.8 nM.

In the case of `COc1cccc2c1nc(N)n1nc(CCCN3Cc4ccc(F)cc4C3)nc21` [Ex-229], the EC50 is reported as 14.8 nM.

With `COc1cccc2c1nc(N)n1nc(CCCN3Cc4ccc(C(F)(F)F)cc4C3)nc21` [Ex-230, 7-methoxy-2-(3-(5-(trifluoromethyl)isoindolin-2-yl)propyl)-[1,2,4]triazolo[1,5-c]quinazolin-5-amine] the EC50 was 5.7 nM.

`COc1cccc2c1nc(N)n1nc(CCN3Cc4oc(C)nc4C(C)(C)C3)nc21` [Ex-235, 7-Methoxy-2-(2-(2,7,7-trimethyl-6,7-dihydro-oxazolo[5,4-c]pyridin-5(4H)-yl)ethyl)-[1,2,4]triazolo[1,5-c]quinazolin-5-amine, TFA] gave an EC50 of 2.8 nM.

`COc1cccc2c1nc(N)n1nc(CCN3CCc4nc(C)oc4C3C)nc21` (stereo not drawn) [Ex-236, 2-(2-(2,4-dimethyl-6,7-dihydrooxazolo[5,4-c]pyridin-5(4H)-yl)ethyl)-7-methoxy-[1,2,4]triazolo[1,5-c]quinazolin-5-amine] was tested, and the EC50 was 1.4 nM.

`COc1cccc2c1nc(N)n1nc(CCN3Cc4oc(C)nc4CC3C)nc21` (stereo not drawn) [Ex-237, 2-(2-(2,6-dimethyl-6,7-dihydrooxazolo[5,4-c]pyridin-5(4H)-yl)ethyl)-7-methoxy-[1,2,4]triazolo[1,5-c]quinazolin-5-amine] gave an EC50 of 3.5 nM.

Compound `COc1cccc2c1nc(N)n1nc(CCN3Cc4nc(C5CC5)sc4C3)nc21` [Ex-241, 2-(2-(2-cyclopropyl-4H-pyrrolo[3,4-d]thiazol-5(6H)-yl)ethyl)-7-methoxy-[1,2,4]triazolo[1,5-c]quinazolin-5-amine] has an EC50 of 7.3 nM.

`COc1cccc2c1nc(N)n1nc(CCN3Cc4nc(C(C)C)sc4C3)nc21` [Ex-242, 2-(2-(2-isopropyl-4H-pyrrolo[3,4-d]thiazol-5(6H)-yl)ethyl)-7-methoxy-[1,2,4]triazolo[1,5-c]quinazolin-5-amine] showed an EC50 of 0.1 nM.

With `CCc1nc2c(s1)CN(CCc1nc3c4cccc(OC)c4nc(N)n3n1)C2` [Ex-243, 2-(2-(2-ethyl-4H-pyrrolo[3,4-d]thiazol-5(6H)-yl)ethyl)-7-methoxy-[1,2,4]triazolo[1,5-c]quinazolin-5-amine] the EC50 was 1.3 nM.

Compound `COc1cccc2c1nc(N)n1nc(CCN3Cc4nc(C)oc4C3)nc21` [Ex-244, 7-methoxy-2-(2-(2-methyl-4H-pyrrolo[3,4-d]oxazol-5(6H)-yl)ethyl)-[1,2,4]triazolo[1,5-c]quinazolin-5-amine] has an EC50 of 0.3 nM.

For `COc1cccc2c1nc(N)n1nc(CCN3Cc4nc(C5CC5)oc4C3)nc21` [Ex-245], the EC50 was 1 nM.

For `COc1cccc2c1nc(N)n1nc(CCN3Cc4cnn(C)c4C3)nc21` [Ex-246, 7-methoxy-2-(2-(1-methylpyrrolo[3,4-c]pyrazol-5(1H,4H,6H)-yl)ethyl)-[1,2,4]triazolo[1,5-c]quinazolin-5-amine], the EC50 was 5.4 nM.

With `COc1cccc2c1nc(N)n1nc(C[C@@H](C)N3Cc4nc(C)oc4C3)nc21` [Ex-247, (R)-7-methoxy-2-(2-(2-methyl-4H-pyrrolo[3,4-d]oxazol-5(6H)-yl)propyl)-[1,2,4]triazolo[1,5-c]quinazolin-5-amine] the EC50 was 0.2 nM.

Work on `CC[C@H](Cc1nc2c3cccc(OC)c3nc(N)n2n1)N1Cc2nc(C)oc2C1` [Ex-248, (R)-7-methoxy-2-(2-(2-methyl-4H-pyrrolo[3,4-d]oxazol-5(6H)-yl)butyl)-[1,2,4]triazolo[1,5-c]quinazolin-5-amine] yielded an EC50 of 1 nM.
